Reference: patent US12291502B2, “Topoisomerase II-alpha inhibitors and methods of treating cancer using the same” (The Regents of the University of Colorado, priority 2019, dated 2025)
Entries after “also recorded” stand apart in the source; their conditions may differ.

Assays:
tumor xenograft = experiment: Tumor xenograft study, tumor growth; type: in vivo, athymic nude mouse; details: i.p. 50 mg/kg, 5× per week over 28 days
Description: Finally, a major goal of this drug design approach was to improve the in vivo physicochemical properties of TOP2A inhibitors compared to the natural product neo. Therefore, an in vivo study was conducted using the athymic nude mouse tumor xenograft model to determine if one of these drug leads could accumulate in tumors when administered via intraperitoneal injection (i.p.). […] Thus, compound 42 was administered i.p. at 50 mg/kg, 5× per week over 28 days.

[1] = Water solubility (stated); type: physicochemical
SW620 cells = experiment: Clonogenic assay (24 h pretreatment of cells); type: cell-based; details: SW620 cells pretreated 24 hours, colonies over 7 days vs DMSO
Description: Clonogenic assay. SW620 cells were plated to allow for 70% confluency within 24 hours. Analogs 3, 7, and vehicle (DMSO) were then added to cells for 24 hours as pretreatment. A total of 1000 viable cells per well were plated into a six-well plate and medium was changed 2× per week. […] The fixed colonies were stained with 0.5% (w/v) crystal violet in 25% (v/v) methanol solution for 2 hours at room temperature. The stain was rinsed off with water and the plate was air dried at room temperature. Digital pictures were taken, and the images were saved in greyscale (8-bit). Images were adjusted for threshold with imaged software (Bethesda, MD, USA), the area of analysis was circled, and particles were analyzed by size (100-2000) and circularity (0.5-1).
After characterizing 3 and 7 as TOP2A ATP-competitive inhibitors, these compounds were next tested for their ability to inhibit TOP2A-dependent TCF-transcription using the well characterized TOPflash (TOP) luminescent reporter, which was used to generate a stably transduced SW620-TOP reporter cells as described previously (Zhou, et al., Oncogene 2016, 35:4990-9). These cells were used to generate single 3D tumor organoids (700 μm in diameter) uniformly arrayed in 96-well plates, which mimic aspects of tumor function observed in vivo. […]

[2] = tested on: H2AX S139 phosphorylation (γ-H2AX) in colon cancer cell lines HT29 and SW620; experiment: γ-H2AX DNA damage assay (immunofluorescence); type: cell-based; details: 0-40 μM for Neo, 7, BAP1, 5-100 μM for etoposide
Description: γ-H2AXDNA damage assay. Colon cancer cell lines HT29 and SW620 were plated to black clear bottom 96 well plates at 20,000 cells/well in 100 μL of phenol red free medium. […] Cells were fixed with 4% paraformaldehyde at room temp for 20 min, washed 3 times with 400 μL/well of PBS, permeabilized and blocked with 100 μL of 3% BSA and 0.1% IGEPAL in PBS for 20 min. Cells were then incubated in γ-H2AX primary antibody (Cell Signaling, 1:400 dilution) at 4° C. overnight, washed 4 times with PBS, and incubated with FITC conjugated anti-rabbit secondary antibody (Cell Signaling, 1:200 dilution) at room temp for 1 hour, and washed 4 times with PBS. Cells were stained with 10 μM of Hoechst 33342 at room temp for 10 min, washed 4 times with PBS before imaged with a 20× objective using PerkinElmer Operetta imager.

SW620 tumor organoids = experiment: 3D invasion assay; type: cell-based; details: SW620 tumor organoids treated 72 hours, viable cells incubated further 72 hours
Description: 3D Invasion Assay. SW620 cells were transduced with NucLight®-Red virus (Essen BioSciences, MI) and selected with Zeocin (200 μg/mL). Transduced cells were cultured in RPMI-1640 media supplemented with 5% FBS and allowed to grow in a […] until ˜80% confluent. Afterwards, cells were plated in a CellCarrier Spheroid Ultra-Low Attachment 96-well plate (PerkinElmer, MA) at 5,000 cells/well in 2% Matrigel (Corning, NY) and allowed to grow for 72 hours. Cells were then treated with 10 μM of analogs […] and cultured for an additional 72 hours. Organoids were then collected, half a 96-well plate per treatment condition, spun down at 500 g, washed with PBS, and dissociated with 500 μL of Cultrex® Organoid Harvesting Solution (Trevigen, MD) for 30 min in ice with moderate mixing. Single cells were then spun down at 500 g, the supernatant was discarded, cells were washed with PBS, re-centrifuged, and resuspended in RPMI-1640 media supplemented with 0.5% FBS. Live cells were counted and then plated in an Incucyte® ClearView 96-well cell migration plate (Essen BioSciences, MI) in a 1:1 ratio of Matrigel (Corning, NY) and RPMI-1640 media supplemented with 0.5% FBS and 1% penicillin/streptomycin at 5,000 cells/well. […] Cell invasion was monitored using the Incucyte® ZOOM imaging system (Essen BioSciences, MI) for bottom fluorescence of invading cells per manufacturer's recommendations. […]

Compound	tumor growth (tumor xenograft)	water solubility, in words [1]	clonogenic colony formation, in words (SW620 cells)	DNA double stranded breaks (γ-H2AX) [2]	invasive potential, in words (SW620 tumor organoids)	DNA double stranded breaks (γ-H2AX) ([2]; listed as Neo)
O=C(CCN1CCOCC1)Nc1ccc2c(-c3cc(F)ccc3O)ccnc2c1O [Analog 42]	no loss of any tumor growth was observed	water soluble; also recorded: significantly improved water solubility	–	–	–	–
CC(=O)Nc1ccc2c(-c3cc(F)ccc3O)ccnc2c1O [Analog 7]	–	–	sufficient to inhibit colony formation; also recorded: significantly inhibit clonogenic colony formation	do not damage DNA; also recorded: do not cause DNA DSBs	inhibit the invasive potential	–
Cn1ccc2c(c1=O)C(=O)c1nccc3c1C2NC1=CCC=CC13 (stereo not shown) [neo, neoamphimedine, reference compound]	–	–	–	do not damage DNA	–	do not cause DNA DSBs
